Experimental data from patent US12077503B2, “Substituted cyclic amides and their use as herbicides” (FMC CORPORATION, priority 2015, dated 2024).

Assays:
Format in all cases: in vivo
[1] = tested on: barnyardgrass (Echinochloa crus-galli); assay: Test G Post-Emergence Protocol; conditions: Echinochloa crus-galli, post-emergence, 312 h
How it was run: (§1)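 Foliar application was made 8 days after sowing, using an aqueous spray of the active in acetone/water (50:50) with 0.5% Tween 20, at doses of 15.625, 62.5 or 250 g/ha. Injury was assessed 13 days later, where 100 meant the plant was fully damaged.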

[2] = tested on: velvetleaf (Abutilon theophrasti); assay: Test G Post-Emergence Protocol; conditions: Abutilon theophrasti, post-emergence, 312 h
How it was run: as §1

[3] = tested on: ivy-leaved morning glory (Ipomoea hederacea); assay: Test G Post-Emergence Protocol; conditions: Ipomoea, post-emergence, 312 h
How it was run: as §1

[4] = tested on: giant foxtail (Setaria faberi); assay: Test G Post-Emergence Protocol; conditions: Setaria faberi, post-emergence, 312 h
How it was run: as §1

[5] = tested on: corn (Zea mays); assay: Test G Post-Emergence Protocol; conditions: Zea mays, post-emergence, 312 h
How it was run: as §1

[6] = tested on: redroot pigweed (Amaranthus retroflexus); assay: Test G Post-Emergence Protocol; conditions: Amaranthus retroflexus, post-emergence, 312 h
How it was run: as §1

[7] = tested on: barnyardgrass (Echinochloa crus-galli); assay: Test G Pre-Emergence Protocol; conditions: Echinochloa crus-galli, pre-emergence, 312 h, evaluated after 13 days
How it was run: (§2)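 Pre-emergence spray, 15.625/62.5/250 g/ha, vehicle acetone:water 50:50 + 0.5% Tween 20, applied 1 d after sowing. Glasshouse 24/16° C, 14 h light, 65% RH, watered twice daily. Visual damage rating at 13 d, 0–100 scale.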

[8] = tested on: velvetleaf (Abutilon theophrasti); assay: Test G Pre-Emergence Protocol; conditions: Abutilon theophrasti, pre-emergence, 312 h, evaluated after 13 days
How it was run: as §2

[9] = tested on: ivy-leaved morning glory (Ipomoea hederacea); assay: Test G Pre-Emergence Protocol; conditions: Ipomoea, pre-emergence, 312 h, evaluated after 13 days
How it was run: as §2

[10] = tested on: giant foxtail (Setaria faberi); assay: Test G Pre-Emergence Protocol; conditions: Setaria faberi, pre-emergence, 312 h, evaluated after 13 days
How it was run: as §2

[11] = tested on: corn (Zea mays); assay: Test G Pre-Emergence Protocol; conditions: Zea mays, pre-emergence, 312 h, evaluated after 13 days
How it was run: as §2

[12] = tested on: redroot pigweed (Amaranthus retroflexus); assay: Test G Pre-Emergence Protocol; conditions: Amaranthus retroflexus, pre-emergence, 312 h, evaluated after 13 days
How it was run: as §2

COc1cc(NC(=O)[C@@H]2C(=O)N(C)C[C@H]2c2ccc(C(F)(F)F)cc2)ccn1 (racemic) [Compound 1589]
0%: pest or weed control at 15.625 g/ha ([1]; 15.625 g ai/ha, evaluated after 13 days (100=total damage to plant; 0=no damage to plant), read-out: Barnyardgrass damage rating) | pest or weed control at 62.5 g/ha ([1]; 62.5 g ai/ha, evaluated after 13 days, read-out: Barnyardgrass damage rating (100=total damage to plant; 0=no damage to plant)) | pest or weed control at 250 g/ha ([1]; 250 g ai/ha, evaluated after 13 days, read-out: damage to plant, Barnyardgrass (100=total damage to plant; 0=no damage to plant)) | pest or weed control at 15.625 g/ha ([2]; 15.625 g ai/ha, evaluated after 13 days (100=total damage to plant; 0=no damage to plant), read-out: Velvetleaf damage rating) | pest or weed control at 62.5 g/ha ([2]; 62.5 g ai/ha, evaluated after 13 days, read-out: Velvetleaf damage rating (100=total damage to plant; 0=no damage to plant)) | pest or weed control at 250 g/ha ([2]; 250 g ai/ha, evaluated after 13 days, read-out: damage to plant, Velvetleaf (100=total damage to plant; 0=no damage to plant)) | pest or weed control at 15.625 g/ha ([3]; 15.625 g ai/ha, evaluated after 13 days (100=total damage to plant; 0=no damage to plant), read-out: Morningglory, Ivy-leaved damage rating) | pest or weed control at 62.5 g/ha ([3]; 62.5 g ai/ha, evaluated after 13 days, read-out: Morningglory, Ivy-leaved damage rating (100=total damage to plant; 0=no damage to plant)) | pest or weed control at 250 g/ha ([3]; 250 g ai/ha, evaluated after 13 days, read-out: damage to plant, Morningglory, Ivy-leaved (100=total damage to plant; 0=no damage to plant)) | pest or weed control at 15.625 g/ha ([4]; 15.625 g ai/ha, evaluated after 13 days (100=total damage to plant; 0=no damage to plant), read-out: Foxtail, Giant damage rating) | pest or weed control at 62.5 g/ha ([4]; 62.5 g ai/ha, evaluated after 13 days, read-out: Foxtail, Giant damage rating (100=total damage to plant; 0=no damage to plant)) | pest or weed control at 250 g/ha ([4]; 250 g ai/ha, evaluated after 13 days, read-out: damage to plant, Foxtail, Giant (100=total damage to plant; 0=no damage to plant)) | plant injury at 15.625 g/ha ([5]; 15.625 g ai/ha, evaluated after 13 days (100=total damage to plant; 0=no damage to plant), read-out: Corn damage rating) | plant injury at 62.5 g/ha ([5]; 62.5 g ai/ha, evaluated after 13 days, read-out: Corn damage rating (100=total damage to plant; 0=no damage to plant)) | plant injury at 250 g/ha ([5]; 250 g ai/ha, evaluated after 13 days, read-out: damage to plant, Corn (100=total damage to plant; 0=no damage to plant)) | pest or weed control at 15.625 g/ha ([6]; 15.625 g ai/ha, evaluated after 13 days (100=total damage to plant; 0=no damage to plant), read-out: Pigweed, Redroot damage rating) | pest or weed control at 62.5 g/ha ([6]; 62.5 g ai/ha, evaluated after 13 days, read-out: Pigweed, Redroot damage rating (100=total damage to plant; 0=no damage to plant)) | pest or weed control at 250 g/ha ([6]; 250 g ai/ha, evaluated after 13 days, read-out: damage to plant, Pigweed, Redroot (100=total damage to plant; 0=no damage to plant)) | pest or weed control at 15.625 g/ha ([7]; 15.625 g ai/ha, read-out: Barnyard grass damage rating (100=total damage to plant; 0=no damage to plant)) | pest or weed control at 62.5 g/ha ([7]; 62.5 g ai/ha, 100=total damage to plant, 0=no damage to plant, read-out: plant damage rating, Barnyardgrass) | pest or weed control at 250 g/ha ([7]; 250 g ai/ha, read-out: Barnyardgrass damage rating (100=total damage to plant; 0=no damage to plant)) | pest or weed control at 15.625 g/ha ([8]; 15.625 g ai/ha, read-out: Velvetleaf damage rating (100=total damage to plant; 0=no damage to plant)) | pest or weed control at 62.5 g/ha ([8]; 62.5 g ai/ha, 100=total damage to plant, 0=no damage to plant, read-out: plant damage rating, Velvetleaf) | pest or weed control at 250 g/ha ([8]; 250 g ai/ha, read-out: Velvetleaf damage rating (100=total damage to plant; 0=no damage to plant)) | pest or weed control at 15.625 g/ha ([9]; 15.625 g ai/ha, read-out: Morning-glory, Ivy-leaved damage rating (100=total damage to plant; 0=no damage to plant)) | pest or weed control at 62.5 g/ha ([9]; 62.5 g ai/ha, 100=total damage to plant, 0=no damage to plant, read-out: plant damage rating, Morningglory, Ivy-leaved) | pest or weed control at 250 g/ha ([9]; 250 g ai/ha, read-out: Morningglory, Ivy-leaved damage rating (100=total damage to plant; 0=no damage to plant)) | pest or weed control at 15.625 g/ha ([10]; 15.625 g ai/ha, read-out: Foxtail, Giant damage rating (100=total damage to plant; 0=no damage to plant)) | pest or weed control at 62.5 g/ha ([10]; 62.5 g ai/ha, 100=total damage to plant, 0=no damage to plant, read-out: plant damage rating, Foxtail, Giant) | pest or weed control at 250 g/ha ([10]; 250 g ai/ha, read-out: Foxtail, Giant damage rating (100=total damage to plant; 0=no damage to plant)) | plant injury at 15.625 g/ha ([11]; 15.625 g ai/ha, read-out: Corn damage rating (100=total damage to plant; 0=no damage to plant)) | plant injury at 62.5 g/ha ([11]; 62.5 g ai/ha, 100=total damage to plant, 0=no damage to plant, read-out: plant damage rating, Corn) | plant injury at 250 g/ha ([11]; 250 g ai/ha, read-out: Corn damage rating (100=total damage to plant; 0=no damage to plant)) | pest or weed control at 15.625 g/ha ([12]; 15.625 g ai/ha, read-out: Pigweed, Redroot damage rating (100=total damage to plant; 0=no damage to plant)) | pest or weed control at 62.5 g/ha ([12]; 62.5 g ai/ha, 100=total damage to plant, 0=no damage to plant, read-out: plant damage rating, Pigweed, Redroot) | pest or weed control at 250 g/ha ([12]; 250 g ai/ha, read-out: Pigweed, Redroot damage rating (100=total damage to plant; 0=no damage to plant))
